Source: US10695331B2, “Veterinary composition comprising imidacloprid, moxidectin and praziquantel for cutaneous topical application (spot on), for the treatment and prevention of ecto and endoparasitoses affecting dogs” (LABYES USA, LLC, priority 2016, dated 2020)
Like-named read-outs stand apart in the source and are kept apart here.

Tests used:
[1] = cows; cited from earlier work
[2] = oral, 0.5 and 2.0 mg/kg/12 hours, 36 days; increase of four times the original dose; cited from earlier work
[3] = dogs; cited from earlier work
[4] = in vivo; cited from earlier work
[5] = sheep; cited from earlier work
[6] = pigs; cited from earlier work
in vivo = conditions: dog
Description: In a period not longer than 2 hours, all of the samples were sent to the Laboratory, where they were centrifuged, and their plasma separated and frozen to −20° C. until the samples were quantified.

[7] = subcutaneous administration, 5 mg/kg, Xie et al. 2011; cited from earlier work
[8] = cited from earlier work
[9] = percutaneous, dogs (Sarasola, 2002); cited from earlier work
[10] = percutaneous, cats (Sarasola, 2002); cited from earlier work
[11] = Plasma concentrations of Praziquantel

CO/N=C1\C[C@]2(C[C@@H]3C[C@@H](C/C=C(\C)C[C@@H](C)/C=C/C=C4\CO[C@@H]5[C@H](O)C(C)=C[C@@H](C(=O)O3)[C@]45O)O2)O[C@H](/C(C)=C/C(C)C)[C@H]1C [Moxidectin]
half-life of elimination [1]: 67.2 h
average increase of the concentrations in plasma [2]: more than 8 times
half-life of elimination [3]: 43.2 h
time of plasma spikes [4]: 3 to 5 h
half-life of elimination [5]: 64.8 h
half-life of elimination [6]: 12 h

O=C(C1CCCCC1)N1CC(=O)N2CCc3ccccc3C2C1 (stereo not shown) [Praziquantel]
Plasma concentrations of Praziquantel (in vivo; 0 h): 0.0 ng/mL
time up to which plasma concentrations are detectable (in vivo; 14.5 mg/kg): up to 48 hours
concentration at 0 h (in vivo; [11]): 0 ng/mL
concentration at 6 h (in vivo; [11]): 63.7 ng/mL
AUC/inf, Max (in vivo; topical or ocular, 14.5 mg/kg): 1321
AUC/inf, Min (in vivo; topical or ocular, 14.5 mg/kg): 626.6
CMAX, Min (in vivo; topical or ocular, 14.5 mg/kg): 38.6 ng/mL
TMAX, Min (in vivo; topical or ocular, 14.5 mg/kg): 4 h
Tmax (in vivo; topical or ocular, 14.5 mg/kg): 4 h
AUC (in vivo; topical or ocular, 14.5 mg/kg, AUC/inf, Median): 997 ng·h/mL
Cmax (in vivo; topical or ocular, 14.5 mg/kg, Max): 77.6 ng/mL
Cmax (in vivo; topical or ocular, 14.5 mg/kg, Median): 53.9 ng/mL
Tmax (in vivo; topical or ocular, 14.5 mg/kg, TMAX): 6 h
Tmax (in vivo; topical or ocular, 14.5 mg/kg, TMAX, Median): 5 h
Tmax (in vivo; topical or ocular, 14.5 mg/kg, Tmax range): 4 to 6 h
Cmax [7]: 47.82 ng/mL
Tmax [7]: 1.45 h
plasma values after 48 hours [7]: below 10 ng/ml
part of an oral dose excreted with no changes ([8]; oral dose): less than 1%
concentration in tissues and plasma ([8]; up to): 14-20%

CO[C@H]1C[C@H](O[C@@H]2/C(C)=C/C[C@@H]3C[C@@H](C[C@]4(CC[C@H](C)[C@@H](C5CCCCC5)O4)O3)OC(=O)[C@@H]3C=C(C)/C(=N/O)[C@H]4OC/C(=C\C=C\[C@@H]2C)[C@]43O)O[C@@H](C)[C@@H]1O [Selamectin]
bioavailability [9]: 4%
bioavailability [10]: 74%
